From article PMC12164071, “Lysine targeting covalent inhibitors of malarial kinase PfCLK3” (RSC Medicinal Chemistry, 2025)
“And” between values parts separate entries of the source, which are not always exact repeats. Equal entries are not always repeated. “Also recorded” adds a separate entry of the source. Where two headings read alike, the source gives them in different places.

Key:
[1] = Human cell viability assay (resazurin); settings: HepG2, 48 hours, errors SD, N ≥ 3
Experimental: Cytotoxicity was assessed in HepG2 cells to complement the selectivity evaluations (Fig. 7). […]
Human cell viability assay.
Mycoplasma tested HepG2 cells were cultured in Dulbecco’s Modified Eagle Medium
(DMEM) with 10% fetal bovine serum, 1% non-essential AA, 1% sodium pyruvate, 1% Pen-
strep and 100ug/mL Normocin. Cultures were incubated at 37 ℃, 5% CO2. Cells were
detached using 0.05% trypsin-EDTA. 500nL of drug compound dilutions, in triplicate, were
added to 384-well, black, clear bottom assay plates using a Mosquito liquid handling
machine. Assay plates, containing compound dilutions, were seeded at 5,000 cells/well and
incubated for 48 hours. 40uM final concentration resazurin, diluted in DPBS, was added to
the assay plates which were then incubated for 4 hours and analysed using a ClariostarTM
plate reader to measure fluorescence Intensity (545-20nm/600-40nm). 3 control compounds
were included on every assay plate, Tamoxifen, Puromycin and TCMDC-135051. Maximum
signal control was obtained from wells with DMSO only and minimum signal control with
Tamoxifen 100uM. These were used to normalise data and give percentage inhibition of
metabolic activity. Experiments were performed N=3 and normalised data was grouped and a
nonlinear regression curve with four parameters was plotted using GraphPad Prism,
generating activity data. […]

human (h)CLK2 = human (h)CLK2 (Homo sapiens, UniProt P49760); assay: Selectivity kinase assay against hCLK2; type: biochemical; settings: for IC50: errors SD, N ≥ 3
Text: Given this work aims to target a conserved residue, selectivity must be derived from the reversible ligand rather than the covalent interaction.

[2] = tested on: PfCLK3 kinase domain (amino acid residues 334–699); assay: Intact protein LC-MS for covalent adduct formation; type: binding, Plasmodium falciparum; settings: for covalent adduct formation with PfCLK3 kinase domain: pH 7.4, 1:5 protein to compound ratio
Experimental: All compounds were then evaluated for covalent binding with PfCLK3 kinase domain (amino acid residues 334–699) using intact protein LC-MS (Fig. 3). Compounds were incubated at pH 7.4 in a 1 : 5 protein to compound ratio and analysed for covalent adduct formation using ESI TOF. […] Compounds 8 and 9 yielded a fully modified species at 43 957 Da, which can be attributed to the mass of the apo protein + the mass of the pyridinium product adduct. A minor mass (20–25%) of 44 378 Da was also detected, consistent with a doubly modified PfCLK3 kinase domain. This implies that cross reactivity with non-catalytic lysine residues is possible using the ethynyl benzaldehyde functionality, although a minor product. […]
dialyzing the protein into a final buffer containing 20 mM HEPES pH 7.4, 150 mM NaCl, 1 […]
PfCLK3 kinase domain (residues 334–699 with a C-terminal TEV cleavage sequence and His6-tag) was cloned into pFastBac vector and expressed and purified from Sf21 insect cells.
Cells were infected using P2 BIICs at an MOI of 0.2 and left to express for 72 h. Harvested cells were lysed and centrifuged before purifying using IMAC and SEC in a final buffer containing 20 mM HEPES pH 7.4, 150 mM NaCl, 1 mM TCEP, and 1 mM MgCl2.
Protein Mass Spectrometry
For intact protein mass spectrometry, compounds were incubated with a 5-fold excess of compound in buffer containing 20 mM HEPES pH 7.4, 150 mM NaCl, 1 mM TCEP, and 1 mM MgCl 2. 5 μL of kinase domain (1 mg/mL) was added to 25 μL of buffer before 0.12 μL of compound in a 10 mM DMSO stock was added to start the incubation. Samples were incubated at room temperature for 4 hours before 10 μL alliquots were analysed by LC-MS.
Intact protein LC-MS experiments were performed on a Synapt G2 Q-ToF instrument equipped with electrospray ionisation (Waters Corp., Manchester, UK). LC separation was achieved using an Acquity UPLC equipped with a reverse phase C4 Aeris Widepore 50 × 2.1 mm HPLC column (Phenomenex, CA, USA) and a gradient of 5–95% acetonitrile (0.1% formic acid) over 10 minutes was employed. Data analysis was performed using MassLynx v4.1 and deconvolution was performed using MaxEnt. […]

PfCLK3 = assay: Tryptic digest and tandem mass spectrometry of PfCLK3 adducts; type: binding, Plasmodium falciparum; settings: PfCLK3 pretreated with compound, trypsin digest, tandem MS
Text: PfCLK3 pretreated with either compound 4 or 9 was then digested with trypsin, and the resulting tryptic peptides analysed by tandem mass spectrometry (Fig. 4d and e). This subset of compounds sampled azaindole regioisomers as well as both aldehyde warheads used. […] However, possible modification of a peptide containing Lys494 and Lys503 was also observed. This is a curious result, as a secondary adduct was not observed in the intact spectrum. Lys503 is distal from the ATP binding site, whereas Lys494 lies at its entrance. Adduct formation may be occurring with Lys494 as 4 approaches the binding-site.
This is consistent with the intact mass spectrum, which detected a doubly modified species in ∼20% abundance versus the singly modified protein. […]
For intact protein mass spectrometry, compounds were incubated with a 5-fold excess of compound in buffer containing 20 mM HEPES pH 7.4, 150 mM NaCl, 1 mM TCEP, and 1 mM MgCl 2. […] Samples were incubated at room temperature for 4 hours before 10 μL alliquots were analysed by LC-MS. […]
The resulting peptide mixture was analyzed by high resolution nESI FT-ICR MS using a 12 Telsa Solarix 2XR mass spectrometer (Bruker Daltonics) equipped with a nanomate infusion robot (Advion Biosciences). […]

[3] = pH 7.4, 1:5 protein to compound, 4 hours room temperature, compound 4 with C-terminal His-tag construct

Chain of human (h)CLK2 (P49760 whole entry): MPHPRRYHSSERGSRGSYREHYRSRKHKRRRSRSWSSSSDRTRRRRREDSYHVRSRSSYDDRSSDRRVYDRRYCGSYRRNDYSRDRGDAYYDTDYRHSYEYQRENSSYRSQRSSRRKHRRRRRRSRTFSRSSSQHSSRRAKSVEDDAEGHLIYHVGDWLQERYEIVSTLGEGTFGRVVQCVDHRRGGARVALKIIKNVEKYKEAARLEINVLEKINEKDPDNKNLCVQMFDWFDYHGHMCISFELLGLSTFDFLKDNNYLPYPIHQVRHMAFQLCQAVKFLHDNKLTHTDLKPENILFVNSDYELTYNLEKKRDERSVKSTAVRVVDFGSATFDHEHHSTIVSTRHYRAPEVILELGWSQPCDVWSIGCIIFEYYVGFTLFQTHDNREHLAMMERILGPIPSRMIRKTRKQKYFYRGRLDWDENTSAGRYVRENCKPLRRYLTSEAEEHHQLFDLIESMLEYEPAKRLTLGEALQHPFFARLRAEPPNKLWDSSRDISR

SMILES: C#Cc1ccc(-c2c[nH]c3ncc(-c4cc(CN(CC)CC)ccc4OC)cc23)cc1C=O [Compound 9]
- CC50 at 48 h ([1]; CC50 (HepG2)): 7.94 ± 1.29 µM
- CC50 at 48 h ([1]; pCC50 (HepG2)): 7.94 µM
- IC50 (human (h)CLK2; read-out: pIC50 (hCLK2) (converted)): 0.0166 µM
- fold more potent against hCLK2 than parent S1 (human (h)CLK2; relative to S1): 31 fold
- doubly modified PfCLK3 kinase domain, minor mass abundance ([2]; 44 378 Da species): 20–25% and ~20%
- covalent adduct formation with PfCLK3 kinase domain [2]: showed covalent adduct formation; also recorded: formed a covalent adduct with PfCLK3
- Relative Ratio, assignment holo (doubly modified) ([2]; pH 7.4, 1:5 protein to compound, 4 hours room temperature): 20
- Relative Ratio, assignment holo (singly modified) [2, 3]: 80
- site of modification (PfCLK3): pyridinium modification was observed in peptides containing both the target Lys394, and Lys373

SMILES: CCN(CC)Cc1ccc(OC)c(-c2cc3c(-c4ccc(O)c(C=O)c4)ccnc3[nH]2)c1 [Compound 4]
- CC50 at 48 h ([1]; CC50 (HepG2)): 5.25 ± 2.47 µM
- CC50 at 48 h ([1]; pCC50 (HepG2)): 5.25 µM
- IC50 (human (h)CLK2; read-out: IC50 (hCLK2)): 0.104 ± 0.037 µM
- partial covalent bond formation, modification ([2]; imine adduct): 32–60%
- covalent adduct formation with PfCLK3 kinase domain [2]: showed covalent adduct formation; also recorded: formed a covalent adduct with PfCLK3
- Relative Ratio, assignment apo [2, 3]: 40
- Relative Ratio, assignment holo (singly modified) [2, 3]: 60
- site of modification (PfCLK3): Lys394 was the predominant site of modification
